Reference: patent US20230012368A1 (Hoffmann-La Roche Inc., priority 2018, published 2023)
Counter-ions that a name gives are not always drawn.

system: Acinetobacter baumannii ATCC 17978; experiment: Antimicrobial susceptibility testing: 90% growth inhibitory concentration (IC90) determination; format: cell-based; details: Acinetobacter baumannii, ATCC17978, 16 h, 90% growth inhibitory concentration; Acinetobacter baumannii ATCC17978; Iso-Sensitest broth, OD 600 nm over 16h; read-out: ATCC17978 IC90
In short: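 Growth of the Acinetobacter baumannii strain was followed by optical density at 600 nm every 20 minutes for 16h at 35±2° C. Inoculum was ~5×10^(5) CFU/ml in Iso-Sensitest medium, with twofold compound dilutions (e.g. 50 to 0.097 μM final). The 90% inhibitory concentration was derived in log-phase growth.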

Row | IC90 | SMILES
1 | 270 nM | CCc1cc(Nc2nccn3c(-c4ccc(OC)c(F)c4F)cnc23)ccc1C(=O)N[C@@H](C)CNC(C)=N [Example 480, 4-[[3-(2,3-difluoro-4-methoxyphenyl)imidazo[1,2-a]pyrazin-8-yl]amino]-#N!- [(2#S!)-1-(ethanimidoylamino)propan-2-yl]-2-ethylbenzamide;formic acid]
2 | 70 nM | CCc1cc(Nc2nccn3c(-c4ccc(OCC#N)c(F)c4F)cnc23)ccc1C(=O)NCCNC(=O)CCCN [Example 141, N-[2-(4-aminobutanoylamino)ethyl]-4-[[3-[4-(cyanomethoxy)-2,3-difluoro-phenyl]imidazo[1,2-a]pyrazin-8-yl]amino]-2-ethyl-benzamide formate]
3 | 650 nM | CCc1cc(Nc2nccn3c(-c4ccc(Cl)c(F)c4F)cnc23)ccc1C(=O)NCCNC(=O)[C@@H](N)CCCNC(=N)N [Example 341, N-[2-[[(2S)-2-amino-5-carbamimidamidopentanoyl]amino]ethyl]-4-[[3-(4-chloro-2,3-difluorophenyl)imidazo[1,2-a]pyrazin-8-yl]amino]-2-ethylbenzamide]
4 | 110 nM | CCc1cc(Nc2nccn3c(-c4ccc(OC)c(F)c4F)cnc23)ccc1C(=O)NCCCO[C@@H]1O[C@H](CO)[C@H](O)[C@H](O)[C@H]1N [Example 520, N-[3-[(2R,3R,4R,5R,6R)-3-amino-4,5-dihydroxy-6-(hydroxymethyl)oxan-2-yl]oxypropyl]-4-[[3-(2,3-difluoro-4-methoxyphenyl)imidazo[1,2-a]pyrazin-8-yl]amino]-2-ethylbenzamide;formic acid]
